Laboratory results taken from US4325954A, “Pyrrolopyrimidinones and pyrroloimidazolones and their compositions and therapeutic methods” (Laboratoires Jacques Logeais, priority 1979, dated 1982).
Like-named read-outs stand apart in the source and are kept apart here.

Tests used:
[1] = tested on: palpebral ptosis induced by a reserpine injection; assay: Antidepressant activity: antagonism of palpebral ptosis induced by reserpine injection; assay type: in vivo; conditions: Mus musculus; mice, oral, one hour prior to reserpine 2 mg/kg ip; recorded hourly for 3 hours (Rubin's scale); read-out: ptosis reserpine ED50 (dosage which inhibits palpebral ptosis by 50%)
Description: The antidepressant activity of each compound was evaluated in mice from its ability to antagonize palpebral ptosis induced by a reserpine injection. The different materials were administered orally, as a preventive treatment, one hour prior to intraperitoneal injection of reserpine (2 mg/kg). The intensity of the palpebral ptosis was then recorded at hourly intervals, for a period of time of 3 hours, according to a semi-quantitative scale (Rubin's scale). The test materials were administered at several dosage levels and, for most of them, the 50% efficient dosage (ED50) which inhibits palpebral ptosis by a factor of 50% could be evaluated.

[2] = Acute toxicity in mice (oral or intraperitoneal single dose); conditions: mouse, in vivo, observed at least one week
Description: Each compound was administered orally or intraperitoneally as a single dose.

[3] = tested on: peripheral and central cholinergic effects of oxotremorine; assay: Atropine activity: effect on peripheral and central cholinergic effects of oxotremorine; assay type: in vivo; conditions: 100 mg/kg oral, 60 minutes prior to subcutaneous oxotremorine 2 mg/kg
Description: In view of the detrimental atropine-like side-effect of the conventional antidepressants, this potential property was systematically investigated in the compounds of the formula (I).
The different materials were administered orally 60 minutes prior to subcutaneous oxotremorine injection at a dosage of 2 mg/kg.
15 minutes, and then 30 and 45 minutes after injection of the cholinergic agent, the various symptoms reflecting a parasympathetic stimulation were evaluated according to a semi-quantitative arbitrary scale (from 0 to 4).
peripheral cholinergic stimulation symptoms: tearfulness, salivation;
central cholinergic stimulation: trembling, Straub's phenomenon.

cardiovascular system = assay: Effects on the cardiovascular system in dogs; assay type: in vivo; conditions: intravenous, 0.1 mg/kg to 10 mg/kg
Description: The compounds of the formula (I) were administered intravenously in dogs, at dosages from 0.1 mg/kg to 10 mg/kg. The changes of blood pressure, of the femoral arterial rate, of vascular resistance subsequent to said injections were recorded.

[4] = ip, intraperitoneal, read-out: LD50 ip

Q: Which ED50 [1] does the source give for `CC1N=C2CC(c3ccccc3)CN2C1=O` (racemic) [Example 1] here?
A: ~33 mg/kg

Q: What about the LD50 [2, 4] of the same compound?
A: > 200 mg/kg

Q: And the LD50 ([2]; oral, read-out: LD50 po)?
A: > 200 mg/kg

Q: Which ED50 [1] does the source give for `CC(C)C1N=C2CC(c3ccccc3)CN2C1=O` (racemic) [Example 2] here?
A: > 30 mg/kg

Q: And the LD50 [2, 4]?
A: > 200 mg/kg

Q: What about the LD50 ([2]; oral, read-out: LD50 po) of the same compound?
A: > 200 mg/kg

Q: For `O=C1C(c2ccccc2)N=C2CC(c3ccccc3)CN12` (racemic) [Example 3], which ED50 [1] is on record?
A: ~30 mg/kg

Q: What about the LD50 [2, 4] of the same compound?
A: > 200 mg/kg

Q: What about the LD50 ([2]; oral, read-out: LD50 po) of the same compound?
A: > 200 mg/kg

Q: Which results are given for `CC(C)C1N=C2CCC(c3ccccc3)CN2C1=O` (racemic) [Example 10]?
A: ED50 [1]: ~100 mg/kg; LD50 [2, 4]: > 200 mg/kg; LD50 ([2]; oral, read-out: LD50 po): > 200 mg/kg; inhibitor activity on cholinergic effects of oxotremorine [3]: slight inhibitor activity

Q: What does the source list for `O=C1C(Cc2ccccc2)N=C2CC(c3ccccc3)CN12` (stereo not shown) [Example 4]?
A: ED50 [1]: < 30 mg/kg; LD50 [2, 4]: < 200 mg/kg; LD50 ([2]; oral, read-out: LD50 po): > 200 mg/kg

Q: What does the source list for `CCOC(=O)C1N=C2CC(c3ccccc3)CN2C1=O` (stereo not shown) [Example 5]?
A: ED50 [1]: ~7 mg/kg; vasoconstrictive action (cardiovascular system): slightly vasoconstrictive; LD50 [2, 4]: > 200 mg/kg; LD50 ([2]; oral, read-out: LD50 po): > 200 mg/kg

Q: What does the source list for `CCOC(=O)CC1N=C2CC(c3ccccc3)CN2C1=O` (stereo not shown) [Example 6]?
A: ED50 [1]: ~100 mg/kg; action on the blood pressure (cardiovascular system): slight hypotensive action; LD50 [2, 4]: > 200 mg/kg; LD50 ([2]; oral, read-out: LD50 po): > 200 mg/kg

Q: Which ED50 [1] does the source give for `CCOC(=O)CCC1N=C2CC(c3ccccc3)CN2C1=O` (stereo not shown) [Example 7] here?
A: ~30 mg/kg

Q: What about the LD50 [2, 4] of the same compound?
A: > 200 mg/kg

Q: And the LD50 ([2]; oral, read-out: LD50 po)?
A: > 200 mg/kg

Q: Which results are given for `CSCCC1N=C2CC(c3ccccc3)CN2C1=O` (stereo not shown) [Example 8]?
A: ED50 [1]: ~30 mg/kg; action on the blood pressure (cardiovascular system): slight hypotensive action; LD50 [2, 4]: > 200 mg/kg; LD50 ([2]; oral, read-out: LD50 po): > 200 mg/kg

Q: For `CCOC(=O)C1N=C2CCC(c3ccccc3)CN2C1=O` (stereo not shown) [Example 12], which ED50 [1] is on record?
A: ~30 mg/kg

Q: What about the LD50 [2, 4] of the same compound?
A: > 200 mg/kg

Q: And the LD50 ([2]; oral, read-out: LD50 po)?
A: > 200 mg/kg

Q: With `CCOC(=O)CCC1N=C2CCC(c3ccccc3)CN2C1=O` (stereo not shown) [Example 13] as the compound, how does the ED50 [1] read?
A: ~30 mg/kg

Q: What about the LD50 [2, 4] of the same compound?
A: > 200 mg/kg

Q: And the LD50 ([2]; oral, read-out: LD50 po)?
A: > 200 mg/kg

Q: For `O=C1CCN=C2CC(c3ccccc3)CN12` (stereo not shown) [Example 14], which ED50 [1] is on record?
A: 5 mg/kg

Q: And the LD50 [2, 4]?
A: > 200 mg/kg

Q: And the LD50 ([2]; oral, read-out: LD50 po)?
A: > 200 mg/kg

Q: Which ED50 [1] does the source give for `O=C1CCN=C2CC(c3cc4ccccc4o3)CN12` (stereo not shown) [Example 15] here?
A: ~33 mg/kg

Q: And the LD50 [2, 4]?
A: > 200 mg/kg

Q: What about the LD50 ([2]; oral, read-out: LD50 po) of the same compound?
A: > 200 mg/kg

Q: With `O=C1CCN=C2CCC(c3ccccc3)N12` (stereo not shown) [Example 17] as the compound, how does the ED50 [1] read?
A: < 100 mg/kg

Q: What about the LD50 [2, 4] of the same compound?
A: > 200 mg/kg

Q: And the LD50 ([2]; oral, read-out: LD50 po)?
A: > 200 mg/kg

Q: For `O=C1CCCN=C2CC(c3ccccc3)CN12` (stereo not shown) [Example 18], which ED50 [1] is on record?
A: < 33 mg/kg

Q: What about the LD50 [2, 4] of the same compound?
A: > 200 mg/kg

Q: And the LD50 ([2]; oral, read-out: LD50 po)?
A: > 200 mg/kg
